In patent US20170298090A1, “Modulators of ROR-gamma Receptors, Composition and Use Thereof” (KULING THERAPEUTICS, priority 2016, published 2017):
“Also recorded” adds a separate entry of the source. Read-outs that look alike come from different tables or passages of the source.

Legend:
[1] = test system: imiquimod (IMQ)-induced psoriasis; experiment: IMQ-induced psoriasis, preventative disease model; assay type: in vivo, C57BL/6 mice; conditions: ~250 mg/kg gavage twice daily
Procedure: IMQ-induced psoriasis model—The mouse psoriasis model was induced according to previous described with minor modifications. van der Fits L, et al. (2009) Imiquimod-induced psoriasis-like skin inflammation in mice is mediated via the IL-23/IL-17 axis. J Immunol 182(9):5836-5845. Briefly, 7-9 weeks old female C57BL/6 mice were used to induce psoriasis. On day 0, the hair was removed from the dorsal skin of the mice after anaesthetizing with pentobarbital (˜0.2 ml/20 g body weight by i.p.). On day 1, psoriasis was induced […] by applying 62.5 mg 5% imiquimod cream to the dorsal skin after anaesthesia on a daily base. In the preventative disease model, KL001 (dissolved in 0.5% methylcellulose (MC)) or 0.5% MC (control group) was orally administrated into C57BL/6 mice by gavage at a dosage of ˜250 mg/kg body weight twice daily starting 2 days before induction of psoriasis (Day −2). The mice were then sacrificed on Day 5, and the skin tissues were then removed for H&E staining and mRNA expression analysis. […] The expression of Il17, Il17f and Rorc (encoding RORγt) were then quantified by realtime PCR and normalized to Actb gene by using the following primers: Actb, F: […]/R (SEQ ID NO.1): […] […]

Th17 cells [2] = experiment: Th17 differentiation of mouse naive CD4+ T cells, IL-17/IL-17F intracellular staining; assay type: cell-based; conditions: for inhibition of TH17 differentiation (in words): 2-10 μM, in vitro culture; for IL-17 and IL-17F expression in Th17 cells (in words): FIG. 1
Procedure: T-cell Isolation and Differentiation—Mouse T cell differentiation was performed and analyzed by intracellular staining as described. […] The Journal of biological chemistry 286: 22707-22710 (2011); Wang, X., et al. Transcription of Il17 and Il17f is controlled by conserved noncoding sequence 2. Immunity 36: 23-31 (2012). Briefly, mouse naïve CD4^+ T cells (CD4^+CD25^−CD62L^hi-CD44^lo) were isolated from spleens and lymph nodes by FACS sorting. Th17 differentiation was performed with 15 ng ml^− IL-6 and 2.5 ng ml^− TGF-β in the presence of 1 μg ml^− anti-CD3 (plate bound) and 1 μg ml^− anti-CD28 (plate bound) for 4 days. When indicated, different concentrations of UA, KL001, other UA analogs or small molecules (dissolved in DMSO) were added at the beginning of Th17 differentiation. The mature Th17 cells were restimulated with 50 ng ml^− PMA (phorbol 12-myristate 13-acetate) and 500 ng ml^− inomycin in the presence of BD GolgiStop™ for 6 hrs, stained intracellularly for IL-17 and IL-17F, and then analyzed by flow cytometry.
UA and its analogs KL001 to KL005, 201702-1 to 201702-4, and 201509-1 to 201509-3 inhibit TH17 differentiation. Mouse naïve CD4+ T cells were cultured under Th17 polarizing condition in the presence of above chemicals (2-10 μM) or DMSO control (Ctrl) for 4 days and then restimulated for IL-17 and IL-17F staining (FIG. 1). […] The Journal of biological chemistry 286: 22707-22710 (2011), 2 μM UA inhibited ˜80% IL-17 expression and ˜50% IL-17F expression, both of which were reported to contribute TH17-mediated autoimmune diseases Yang, X. O., Chang, S. H., Park, H. et al. Regulation of inflammatory responses by IL-17F. The Journal of experimental medicine, 205: 1063-1075 (2008). […] (FIG. 1), whereas other UA analogs inhibited TH17 differentiation at a less degree (FIG. 1 and FIG. 6).

[3] = test system: experimental autoimmune encephalomyelitis (EAE); experiment: MOG-induced EAE, preventative disease model; assay type: in vivo, mice; conditions: for IL-17 expression of T cells infiltrated into the central nerve system: 100 mg/kg i.p. every other day; for effect on EAE disease (in words): 100 mg/kg i.p. every other day after first MOG immunization
Procedure: (§1) MOG-induced Experimental Autoimmune Encephalomyelitis (EAE)—EAE induction were performed by immunizing mice twice with MOG35-55 peptide (amino acids 35-55; MEVGWYRSPFSROVHLYRNGK) emulsified in CFA followed by pertussis toxin injection with slight modifications, and analyzed as previously described. […] The Journal of biological chemistry 286: 22707-22710 (2011); Wang, X., et al. Transcription of Il17 and Il17f is controlled by conserved noncoding sequence 2. Immunity 36: 23-31 (2012). Briefly, the disease scores were assigned on a scale of 0-5 as follows: 0, none; 1, limp tail or waddling gait with tail tonicity; 2, wobbly gait; 3, hindlimb paralysis; 4, hindlimb and forelimb paralysis; 5, death.
The Journal of biological chemistry 286: 22707-22710 (2011).

[4] = test system: experimental autoimmune encephalomyelitis (EAE); experiment: MOG-induced EAE, therapeutic disease model; assay type: in vivo, mice; conditions: ~250 mg/kg gavage twice daily from Day 9
Procedure: as §1
To test the therapeutic potential of KL001, EAE was first induced by MOG immunization and PTX injection as described.

rodents = conditions: cited from earlier work
STAT3 = STAT3 (Homo sapiens, UniProt P40763); conditions: previous studies; cited from earlier work
Th17 cells [5] = conditions: previous studies (Xu et al. 2011); read-out: IC50 in inhibiting Th17 differentiation; cited from earlier work
[6] = 2 μM, Th17 polarizing condition, 4 days

Sequence of STAT3 (P40763 whole entry, species assumed): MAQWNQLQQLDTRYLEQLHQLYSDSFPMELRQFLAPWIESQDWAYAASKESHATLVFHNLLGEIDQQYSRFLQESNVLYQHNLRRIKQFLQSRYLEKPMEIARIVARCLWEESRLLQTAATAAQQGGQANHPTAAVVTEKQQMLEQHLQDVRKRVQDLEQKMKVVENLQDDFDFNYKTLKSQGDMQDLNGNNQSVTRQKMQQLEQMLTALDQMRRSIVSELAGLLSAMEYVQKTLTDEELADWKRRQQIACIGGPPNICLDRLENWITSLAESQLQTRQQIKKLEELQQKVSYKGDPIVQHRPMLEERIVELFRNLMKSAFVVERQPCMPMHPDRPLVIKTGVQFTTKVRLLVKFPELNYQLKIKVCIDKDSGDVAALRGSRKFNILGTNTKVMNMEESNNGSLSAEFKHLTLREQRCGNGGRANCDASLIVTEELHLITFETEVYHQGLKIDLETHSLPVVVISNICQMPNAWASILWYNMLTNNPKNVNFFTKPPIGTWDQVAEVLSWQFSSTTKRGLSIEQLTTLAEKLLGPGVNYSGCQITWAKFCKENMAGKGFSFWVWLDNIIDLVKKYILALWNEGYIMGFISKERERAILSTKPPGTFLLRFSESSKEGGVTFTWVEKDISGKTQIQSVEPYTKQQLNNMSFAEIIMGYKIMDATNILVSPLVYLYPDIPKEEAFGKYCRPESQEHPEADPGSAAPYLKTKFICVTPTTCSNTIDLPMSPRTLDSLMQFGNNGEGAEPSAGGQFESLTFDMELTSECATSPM

Row | IC50 (Th17 cells [2]; Mus musculus, CD4+ T, readout of IL-17 staining, titration, read-out: IC50 in inhibiting Th17 differentiation) [nM] | Compound | psoriatic symptoms, redness and roughness of the skin (in words) [1] | expression of IL-17 in skin samples ([1]; mRNA) | inhibition of TH17 differentiation (in words) (Th17 cells [2]; 4 days) | IL-17 and IL-17F expression in Th17 cells (in words) (Th17 cells [2]) | IL-17 expression of T cells infiltrated into the central nerve system [3] | effect on EAE disease (in words) [3] | effect on EAE disease (in words) [4] | reduction of average disease scores vs control group [4] [%] | acute toxicity LD50 (rodents; intraperitoneal injection (Lee et al. 2010)) [mg/kg] | acute toxicity LD50 (rodents; oral administration (Lee et al. 2010)) [mg/kg] | concentration at which inhibitory activity on STAT3 was observed (STAT3) | IC50 (Th17 cells [5]) [nM] | inhibition of IL-17F expression (Th17 cells [2]; [6]) [%] | inhibition of IL-17 expression (Th17 cells [2]; [6]) [%]
1 | ~490 | Cc1oc(=O)oc1COC(=O)[C@]12CC[C@@H](C)[C@H](C)[C@H]1C1=CC[C@@H]3[C@@]4(C)CC[C@H](O)C(C)(C)[C@@H]4CC[C@@]3(C)[C@]1(C)CC2 [KL001, (5-methyl-2-oxo-1,3-dioxol-4-yl)methyl (1S,2R,4aS,6aS,6bR,8aR,10S,12aR,12bR,14bS)-10-hydroxy-1,2,6a,6b,9,9,12a-heptamethyl-1,3,4,5,6,6a,6b,7,8,8a,9,10,11,12,12a,12b,13,14b-octadecahydropicene-4a(2H)-carboxylate] | visually and greatly reduced; also recorded: ameliorated psoriatic symptoms | notably reduced | comparable level to UA; also recorded: comparable efficacy with UA | inhibited | significantly reduced | greater degree than UA; also recorded: ameliorated | significantly reduced the disease severity; also recorded: ameliorated | 50 |  |  |  |  |  | 
2 |  | C[C@H]1[C@H](C)CC[C@]2(C(=O)O)CC[C@]3(C)C(=CC[C@@H]4[C@@]5(C)CC[C@H](O)C(C)(C)[C@@H]5CC[C@]43C)[C@H]12 [UA, ursolic acid, reference compound] |  |  | inhibit | inhibited | significantly reduced | ameliorated | did not affect; also recorded: but not UA, ameliorated |  | > 637 | 8330 | higher than 25 μM | 680 | ~50 | ~80
